Where “and” joins values, the source holds several entries; their conditions need not be identical. Equal entries are not always repeated.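 The compound was tested at five concentrations on cells cultured in 96-well plates, with a 48-hour exposure period. GI50 marks 50% less growth. At the TGI there is no net growth.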
Tested on: MDA-MB-468 breast
Experiment: NCI-60 cell line screen, 48 h

Structure (SMILES) | GI50 | TGI
CN(C)CCCn1c2c(c3ccc(N4CCNCC4)cc3c1=O)C(=O)c1ccccc1-2 | 949 nM | 2.41 µM
O=c1[nH]c(-c2ccncc2)nc2sc3c(c12)CCCCCC3 | > 100000 nM | > 100 µM
COc1cnc2c(c1)C(=O)c1c-2n(CCCN2CCNCC2)c(=O)c2cc(F)ccc12 | 205 nM | 0.784 µM
COc1cccc(-c2cc(-c3ccc(Nc4nc(Nc5ccc(Cl)cc5)nc(Nc5ccc(Cl)cc5)n4)cc3)nc(N)c2C#N)c1 | 2180 nM | 4.79 µM
CCCCCCCCCCCCNC(=O)N[C@H](C(=O)N[C@H]1/C=C/OCCNC(=O)/C=C/[C@H](C(C)C)NC1=O)C(C)C | 898 nM | 6.74 µM
CC(C)OC(=O)OCOP(=O)(OCOC(=O)OC(C)C)C1CCCN(O)C1=O (stereo not given) | 1610 nM | > 100 µM
C=C1C(=O)O[C@H]2[C@H]1CC/C(COC(=O)NCc1ccc(Cn3c(=O)sn(CCCI)c3=O)cc1)=C\CC[C@@]1(C)O[C@@H]21 | 1540 nM | 3.48 µM
Cc1ccc(CNc2ccc(Cl)cc2NCc2ccc(C)c(O)c2)cc1O | 8050 nM | 16.8 µM
N#CSc1c[nH]c2cccc(/C=C/C(=O)/C=C(O)/C=C/c3cccc4[nH]cc(SC#N)c34)c12 | 496 nM | 1.22 µM
OC1(c2ccccc2)c2ccccc2N(c2ccccc2)c2ccc(Cl)cc21 (stereo not given) | 86.4 nM | 0.317 µM
O=c1c2cc(F)ccc2sc2c(NCCCNCCO)nc3ccc(F)cc3c12 | 1780 nM | 3.47 µM
COc1cc2nc(NC3CCC3)nc(NC3CCN(C(C)C)CC3)c2cc1OC | 1370 nM | 2.85 µM
Cc1ccccc1C1N=C2Oc3ccccc3C=C2C(=O)N1 (stereo not given) | 524 nM | > 100 µM
CNC(=S)N/N=C/CSC/C=N/NC(=S)NC | > 100000 nM | > 100 µM
Nc1c2ccccc2nc2ccccc12 | 1060 nM and 1150 nM | 2.85 µM and 2.88 µM
CC1(C)N=C(N)N=C(N)N1c1cccc(CC(=O)Nc2ccccc2)c1 | 22100 nM | > 100 µM
COC(=O)[C@@H](C)C[C@H](Cc1ccccc1)NC(=O)c1nc([C@@H](C[C@H](C(C)C)N(C)C(=O)[C@@H](NC(=O)[C@H]2CC(=O)CCN2C)C(C)C)OC(C)=O)sc1C(C)C | 25.8 nM | 0.129 µM
COc1cc(-c2nn(-c3cccc(NC(=O)NCCNC(=O)c4ccccc4)c3)cc2-c2ccncc2)ccc1Cl | 3140 nM | > 100 µM
Nc1nc(N)c2nc(CNc3ccc(C(=O)NC(CCC(=O)O)C(=O)O)cc3)cnc2n1 (stereo not given) | 35.7 nM and < 10 nM | > 100 µM
CC(=O)Nc1ccc(S(=O)(=O)N2C(=O)CCC2C(=O)Nc2ccccc2)cc1 (stereo not given) | 1760 nM | 19.2 µM
COc1cc(F)c(F)c(F)c1C(=O)c1cnc(NC2CCN(S(C)(=O)=O)CC2)nc1N | 2300 nM | 7.27 µM
Nc1ncnc2c1ncn2C1SC(CO)C(O)C1O (stereo not given) | 19400 nM | 58 µM
C=CN(C(=O)N1CCN(c2cc3c(cc2F)c(=O)c(C(=O)O)cn3C2CC2)CC1)c1nc(-c2ccc(C)cc2)cs1 | 2860 nM | 9.14 µM
O=c1[nH]c2c(ccc3cnccc32)c2c1CCC2 | 206 nM | 0.549 µM
Cc1n[nH]c(C)c1-c1c(C)n[nH]c1C | 1960 nM | 4.75 µM
N#Cc1cccc(/C(N)=N/C(N)=N/c2nc3ccccc3s2)c1 | 415 nM | –

Structure (SMILES) | GI50 | TGI
CCn1nc(C#Cc2c(C)ccc3c(Nc4ccc(Cl)cc4)nccc23)c2c(N)ncnc21 | 2250 nM | 10.5 µM
CC1(C)CCC(c2ccc(Cl)cc2)=C(CN2CCN(c3ccc(C(=O)NS(=O)(=O)c4ccc(N[C@H](CCN5CCOCC5)CSc5ccccc5)c(S(=O)(=O)C(F)(F)F)c4)cc3)CC2)C1 | 770 nM | 2.64 µM
COc1ncc(-c2ccc3nc(N)n(-c4ccccc4C(F)(F)F)c(=O)c3c2)cc1S(=O)(=O)Nc1ccc(F)cc1F | 853 nM | 2.92 µM
CC[C@@]12CC(C(=O)OC)=C3Nc4ccccc4[C@@]34CCN(C[C@H]3O[C@H]31)[C@@H]24 | 21500 nM | 98.7 µM
CN(C)c1ccc(-c2cc(-c3cccc(NS(C)(=O)=O)c3)nc(N)c2C#N)cc1 | 268 nM | 1.17 µM
C=C(C)[C@@H]1CC[C@]2(C(=O)OC)CC[C@]3(C)[C@H](CC[C@@H]4[C@@]5(C)CC/C(=N\OCCC(=NCCC#N)NOCCC#N)C(C)(C)[C@@H]5CC[C@]43C)[C@@H]12 | 2020 nM | > 50 µM
Cc1cc(C)c(CNC(=O)c2cc(Cl)c3c(c2C)O[C@@](C)(C2CCC(N(C)C)CC2)O3)c(=O)[nH]1 (stereo not given in full) | 24100 nM | > 100 µM
CCN(CC)c1ccc(C=C2C(=O)NC(=S)NC2=O)cc1 | 2370 nM | 5.56 µM
N=C(N)c1ccc(-c2ccc(-c3cccs3)s2)cc1F | 46.4 nM | 0.256 µM
COc1ccc(-c2cc(-c3ccc(Cl)cc3)c(C#N)c(=O)n2CCCCCC(=O)Nc2ccccc2N)cc1 | 3240 nM | 31.5 µM
CN1CCN(c2ccc(Nc3nc(NCCCNS(=O)(=O)c4cccc(F)c4)c4sccc4n3)cc2)CC1 | 2590 nM | 10.9 µM
Fc1cnccc1-c1nc2ccc3[nH]ncc3c2c2c1CCCC2 | 1050 nM | 7.86 µM
Nc1nc(-c2ccccn2)c(-c2ccc3ncccc3n2)s1 | > 25000 nM | > 25 µM
CCc1ccc2cc3c(ccc4ccccc43)c3c2c1CC3 | 481 nM | > 100 µM
FC(F)(F)c1ccc(-c2cnc(-c3nn[nH]n3)nc2NC2CCCCCC2)cc1 | > 10000 nM | > 10 µM
O=C1Nc2ccc(I)cc2/C1=C/c1cc(Br)c(O)c(Br)c1 | > 18900 nM and 15900 nM | > 25 µM and 57.5 µM
CN1CC[C@H](N(C)C(=O)N2CC(c3cc(F)ccc3F)=C[C@@]2(CO)c2ccccc2)[C@H](F)C1 | 5.14 nM | –
COc1cc(C(=O)N[C@@H]2CCCN(C)C2)ccc1Nc1ncc2c(n1)N(C1CCCC1)CC(C)(C)C(=O)N2C | 17.7 nM | 3.39 µM
CC/C(=C\c1ccc(N(C)C)cc1)c1ccncc1 | 2270 nM | 7.32 µM
CC1(C)CC[C@]2(C(=O)O)CC[C@]3(C)C(=CC[C@@H]4[C@@]5(C)C/C(=C/c6cccnc6)[C@H](O)C(C)(C)[C@@H]5CC[C@]43C)[C@@H]2C1 | 17100 nM | 88.3 µM
CCCN1CCCC(c2ccc(Nc3nc(Nc4cc(F)ccc4C(N)=O)c4cc[nH]c4n3)c(OC)c2)C1 (stereo not given) | 3250 nM | 6.73 µM
NC1=Nc2cc(OCCCCN3Cc4ccccc4C3)c(OCC3CC3)cc2C12CCCC2 | 1250 nM | 2.75 µM
CCOc1ccc(-c2nc3ccc(-c4nc5ccc(N6CCN(C)CC6)cc5[nH]4)cc3[nH]2)cc1OCC | 1580 nM | 4.6 µM
CC(C)c1c(C(=O)Nc2ccccc2)c(-c2ccccc2)c(-c2ccc(F)cc2)n1CC[C@@H](O)C[C@@H](O)CC(=O)O | 9320 nM | 68.9 µM
N/C(=N\O)c1cn(C2OC(CO)C(O)C2O)c2ncnc(N)c12 (stereo not given) | 126 nM | 0.453 µM

Reference: PubChem BioAssay (NCI)
